For one experiment, the target named is T1, mouse TRPM8 (Mus musculus, UniProt Q8R4D5).
T1 construct: expressed in transfected cells; host or cells: HEK293T
The experiment in a line: Whole-cell patch-clamp recordings of wild-type TRPM8 in transfected HEK293T cells. The format is cell-based. As to conditions: for maximum current activated: −80 mV, normalized to 2 mM (−)-menthol; for EC50: WT TRPM8, whole-cell, ~25°C. The method, then: (§1) Murine TRPM8 was used in this study. […] Point mutations were made by Fast Mutagenesis Kit V2 (SBS Genetech). Primers were used to generate point mutations.
(§2) HEK293T cells were cultured in Dulbecco’s modified eagle medium supplemented (DMEM) with 10% fetal bovine serum and 1% penicillin-streptomycin solution at 37°C with 5% CO2. When cells grow up to 60%–70%, plasmids were transfected with lipofectamine 2000 following the manufacturer’s protocol. Patch-clamp recordings were performed 18–24 h after transfection.
(§3) Patch-clamp recordings were performed using a HEKA EPC10 amplifier driven by PatchMaster software (HEKA). Patch pipettes were prepared from borosilicate glass and fire-polished to a resistance of 4–6MΩ. A solution (pH 7.25) containing 130 mM NaCl, 0.2 mM EDTA, and 3 mM HEPES was used in both bath and pipette for recording. For whole-cell recording, cells were detached by trypsin and plated on the microscope cover glass for 30–60 min before the experiment. Transfected cells could be identified by green fluorescence. Cells were clamped at +80 mV and −80 mV for 350 ms, respectively, during recording, and the average current in the last 40 ms was performed. All recordings were performed at room temperature (∼25°C).
To perfuse (−)-menthol and other isomers during the patch-clamp recording, a rapid solution changer with a gravity-driven perfusion system was used (RSC-200, Bio-Logic). Each solution was delivered through a separate tube, so there was no mixing of solutions. The pipette tip was placed right in front of the perfusion outlet during recording to ensure the solution exchange was complete.
Data from whole-cell recordings were analyzed in Igor Pro (WaveMatrix). EC50 values were derived from fitting a Hill equation to the concentration–response relationship. Changes in EC50 by point mutation may be caused by either perturbation of ligand binding or channel gating or both. To distinguish these possibilities, the dissociation constant (K d) for ligand binding is estimated assuming the following gating scheme: C0↔KdC1↔LO, where L is the equilibrium constant for the final closed-to-open transition.
For TRPM8 activation by other stereoisomers, P o max was measured from the concentration–response curve and L was determined from P o max by L = P o max/(1 − P o max). Both K d and L contribute to the measured apparent affinity by the equation EC50 = K d/(1 + L).
Background: In patch-clamp work, channel activity is measured electrically.

On the set-up of experiment [1]: method as in Hopp, 1993; Barel et al., 2009. As to conditions: human taste dilution studies; ref Hopp, 1993; Barel et al., 2009; cited from earlier work.
The subject of experiment [2] is residue I846 in the S4 of TRPM8. The experiment in a line: Thermodynamic mutant cycle analysis (TMCA) with patch-clamp recordings, residue I846 (I846V mutant). It is filed as cell-based, mouse. As to conditions: WT vs I846V. The method, then: as §1, §2
as §3, with “All recordings were performed at room temperature (∼25°C).” left out
(§4) Data from whole-cell recordings were analyzed in Igor Pro (WaveMatrix). […]
The P o of mouse TRPM8 activated by (−)-menthol was measured through single-channel recordings as in our previous study ([Xu et al., 2020]), and P o of TRPM8 mutant channels activated by (−)-menthol was estimated from noise analysis through whole-cell recordings. The mean current amplitude (I), the squared deviations in current amplitude from the mean value (σ ^2), and the single-channel current (i) were measured experimentally from a membrane patch of ion channels. Then, the number of ion channels clamped into that patch (N) is determined as N=I^2/i⋅I−σ^2.
For TRPM8 activation by other stereoisomers, P o max was measured from the concentration–response curve and L was determined from P o max by L = P o max/(1 − P o max). Both K d and L contribute to the measured apparent affinity by the equation EC50 = K d/(1 + L). […]

In another experiment the target is T2, TRPM8 R842K mutant (Mus musculus, UniProt Q8R4D5, R842K).
T2 construct: expressed in transfected cells; host or cells: HEK293T
T2 sequence (Q8R4D5 whole entry R842K): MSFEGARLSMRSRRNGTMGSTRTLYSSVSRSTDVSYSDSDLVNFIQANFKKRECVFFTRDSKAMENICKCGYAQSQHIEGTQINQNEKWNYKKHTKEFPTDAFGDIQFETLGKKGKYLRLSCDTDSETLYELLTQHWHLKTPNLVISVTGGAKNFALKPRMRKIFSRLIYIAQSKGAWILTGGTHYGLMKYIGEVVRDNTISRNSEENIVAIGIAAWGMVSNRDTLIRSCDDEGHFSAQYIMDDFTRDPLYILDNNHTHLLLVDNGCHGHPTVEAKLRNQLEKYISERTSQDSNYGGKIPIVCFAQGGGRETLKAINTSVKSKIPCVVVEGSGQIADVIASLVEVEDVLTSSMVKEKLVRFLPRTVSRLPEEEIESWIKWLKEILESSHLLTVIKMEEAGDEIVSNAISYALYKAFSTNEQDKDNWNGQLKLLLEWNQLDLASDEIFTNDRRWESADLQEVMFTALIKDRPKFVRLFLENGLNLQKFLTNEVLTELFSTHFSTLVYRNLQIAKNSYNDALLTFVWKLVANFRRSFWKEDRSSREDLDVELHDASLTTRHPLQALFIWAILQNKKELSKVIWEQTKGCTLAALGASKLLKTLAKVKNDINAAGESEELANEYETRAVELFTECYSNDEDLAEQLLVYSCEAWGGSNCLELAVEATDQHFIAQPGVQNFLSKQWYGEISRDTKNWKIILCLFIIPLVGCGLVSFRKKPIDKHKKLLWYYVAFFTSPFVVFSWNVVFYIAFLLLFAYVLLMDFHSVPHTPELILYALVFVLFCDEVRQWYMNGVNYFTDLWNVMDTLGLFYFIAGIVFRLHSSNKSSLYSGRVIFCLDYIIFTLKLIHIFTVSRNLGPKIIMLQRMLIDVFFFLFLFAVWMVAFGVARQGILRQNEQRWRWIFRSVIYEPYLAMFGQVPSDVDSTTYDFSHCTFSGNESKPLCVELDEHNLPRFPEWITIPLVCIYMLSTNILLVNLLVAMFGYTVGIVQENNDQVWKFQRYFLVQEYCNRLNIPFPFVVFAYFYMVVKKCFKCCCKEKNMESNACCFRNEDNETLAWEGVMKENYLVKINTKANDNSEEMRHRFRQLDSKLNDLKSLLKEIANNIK
Nature of the experiment: Whole-cell patch-clamp recordings of the R842K mutant channel. It is filed as cell-based. As to conditions: −80 mV. On the procedure: as §1, §2, §3
To perfuse (−)-menthol and other isomers during the patch-clamp recording, a rapid solution changer with a gravity-driven perfusion system was used (RSC-200, Bio-Logic). […]

For experiment [3], the system named is residue D802 in the S3 of TRPM8. Nature of the experiment: Thermodynamic mutant cycle analysis (TMCA) with patch-clamp recordings, residue D802. The format is cell-based, mouse. As to conditions: cycle (−)-menthol vs (+)-neomenthol, WT vs D802 mutant. The method, then: as §1, §2
Patch-clamp recordings were performed using a HEKA EPC10 amplifier driven by PatchMaster software (HEKA). […] Transfected cells could be identified by green fluorescence. […]
as §4
The P o of mouse TRPM8 activated by (−)-menthol was measured through single-channel recordings as in our previous study ([Xu et al., 2020]), and P o of TRPM8 mutant channels activated by (−)-menthol was estimated from noise analysis through whole-cell recordings. The mean current amplitude (I), the squared deviations in current amplitude from the mean value (σ ^2), and the single-channel current (i) were measured experimentally from a membrane patch of ion channels. Then, the number of ion channels clamped into that patch (N) is determined as N=I^2/i⋅I−σ^2. […]

Setting [4] is: +80 mV, compared to (−)-menthol.

T1 sequence (Q8R4D5 whole entry): as the sequence (Q8R4D5 whole entry R842K) above, with K842R counted along it

`CC(C)[C@H]1CC[C@@H](C)C[C@H]1O` [(+)-neoisomenthol]: the “Kd (binding affinity from gating scheme)” value at mouse TRPM8 (setting [4]) is “slightly decreased affinity”. Also, the maximum current activated entry on mouse TRPM8 is reported as “much reduced”. For the same compound, the cooling thresholds result in experiment [1] is “much higher cooling thresholds”. Further, the coupling energy is on record as 3.25 ± 0.11 kT in experiment [2] (+80 mV, cycle (−)-menthol vs (+)-neoisomenthol) and 3.10 ± 0.18 kT in experiment [2] (−80 mV, cycle (−)-menthol vs (+)-neoisomenthol).
The EC50 is the concentration at which the effect is half-maximal. Lower therefore signals higher potency in that assay. As for `CC(C)[C@@H]1CC[C@@H](C)C[C@@H]1O` [(+)-neomenthol], the “activation of the R842K mutant” value at TRPM8 R842K mutant is reported as “cannot activate”. The “Kd (binding affinity from gating scheme)” value on mouse TRPM8 (setting [4]) was “slightly decreased affinity”. The “L value (gating equilibrium constant)” value at mouse TRPM8 (setting [4]) is “significantly reduced”. It took 206 ± 11.4 µM to reach a half-maximal effect on mouse TRPM8 (+80 mV) (EC50). The maximum current activated result on mouse TRPM8 is “much reduced”. In addition, the coupling energy in experiment [3] (+80 mV) is listed as 1.81 ± 0.10 kT; in experiment [3] (−80 mV), 2.12 ± 0.06 kT; in experiment [2] (±80 mV, cycle (−)-menthol vs (+)-neomenthol, threshold 1.5 kT) it was “large coupling energy values”.
`CC(C)[C@@H]1CC[C@@H](C)C[C@H]1O` [(−)-menthol] yielded a concentration for a half-maximal effect (EC50) at mouse TRPM8 (+80 mV) of 62.6 ± 1.2 µM. For the same compound, the cooling thresholds result in experiment [1] is “lowest cooling thresholds”.

The values above are taken from PMC9253294, “Differential Activation of TRPM8 by the Stereoisomers of Menthol” (Frontiers in Pharmacology, 2022).
